Values after ≈ are worked out from the molar mass of the structure shown.
What was measured:
Typhlodromus pyri = test: LR50; higher = less toxic; settings: not reported; mortality
Tagia sp. = settings: chronic/long-term; reproduction
Colinus virginianus = settings: acute; oral; mortality
Daphnia magna = settings: chronic/long-term; duration: 21 days; reproduction
Lepomis macrochirus = settings: acute; duration: 96 hours; mortality
Oncorhynchus mykiss = settings: chronic/long-term; duration: 87 days; growth
Hypoaspis aculeifer = settings: chronic/long-term; duration: 14 days; reproduction
Apis mellifera = settings: acute, duration: 48 hours, mortality
Canidae = settings: oral, Dog Other, body weight
Mus musculus = settings: acute; oral; mortality

SMILES: COc1ccc(-c2ccccc2)cc1NNC(=O)OC(C)C [Bifenazate]
- LR50 (Typhlodromus pyri): 23.8 g/ha
- NOEC (Tagia sp.): 9.75 mg/kg
- LD50 (Colinus virginianus): 1040 mg/kg-day
- LD50 (Rattus norvegicus; acute, oral, mortality): > 5000 mg/kg-day
- NOAEL (Rattus norvegicus; chronic, duration: 2 years, hematological): 1 mg/kg-day
- NOAEL (Rattus norvegicus; reproduction developmental, body weight): 10 mg/kg-day
- NOAEL (Rattus norvegicus; reproduction developmental, food consumption): 1.5 mg/kg-day
- NOEC (Daphnia magna): 0.15 mg/L
- LC50 (Lepomis macrochirus): 0.58 µg/mL (≈ 1.93 µM)
- NOEC (Oncorhynchus mykiss): 0.017 mg/L
- NOEC (Hypoaspis aculeifer): 6.56 mg/kg
- LD50 (Apis mellifera; dermal): 8.5 µg/piece
- LD50 (Apis mellifera; oral, unspecified): > 100 µg/piece
- NOAEL (Canidae; chronic, duration: 1 years): 1 mg/kg-day
- NOAEL (Canidae; subchronic, duration: 90 days): 1 mg/kg-day
- LD50 (Mus musculus): > 5000 mg/kg-day
- NOEL (Anas platyrhynchos; reproductive, duration: 23 weeks, F): 2.3 mg/kg-day
- LD50 (Anas platyrhynchos; short-term, oral, feed, mortality): 106 mg/kg-day

Reference: EPA's ToxValDB 9.5 (doi:10.2903/j.efsa.2017.4693)
